{"source": "the OligoGym collection", "target": "SOD1", "conditions": "ASO", "note": "Values joined by “and” are separate entries in the source; they are usually repeats but may differ in a detail not shown here. Equal entries are not always repeated. After the bases stand the sugars from the 5' end (letter, count) and the backbone: PS all phosphorothioate, else s phosphorothioate and o phosphodiester by linkage. Methylation of C is not given here. e = 2'-O-(2-methoxyethyl) (MOE); k = constrained ethyl (cEt); d = 2'-deoxy (DNA)", "data": [{"sequence": "GACTACTTTATAGGCCAGAC (sugars e5 d10 e5, PS)", "values": [{"measurement": "target mRNA inhibition", "setting": "HepG2, 4 µM", "result": "64% and 74%"}, {"measurement": "target mRNA inhibition", "setting": "HepG2, 12 µM", "result": 80, "unit": "%"}]}, {"sequence": "CGATCCCAATTACACCA (sugars e2 k2 d8 k2 e3, PS)", "values": [{"measurement": "target mRNA inhibition", "setting": "HepG2, 4 µM", "result": 57, "unit": "%"}]}, {"sequence": "TCGGCCACACCATCTTTGTC (sugars e5 d10 e5, PS)", "values": [{"measurement": "target mRNA inhibition", "setting": "HepG2, 5 µM", "result": "32% and 28%"}]}, {"sequence": "ACCTTCACTGGTCCATT (sugars e3 k2 d7 k2 e3, PS)", "values": [{"measurement": "target mRNA inhibition", "setting": "HepG2, 3 µM", "result": 44, "unit": "%"}]}, {"sequence": "GCTTCCCCACACCTTCAC (sugars e5 d8 e5, linkages s1 o3 s9 o2 s2)", "values": [{"measurement": "target mRNA inhibition", "setting": "A431, 0.12 µM", "result": 0, "unit": "%"}, {"measurement": "target mRNA inhibition", "setting": "A431, 0.6 µM", "result": 1, "unit": "%"}, {"measurement": "target mRNA inhibition", "setting": "A431, 3 µM", "result": 0, "unit": "%"}, {"measurement": "target mRNA inhibition", "setting": "A431, 15 µM", "result": 5, "unit": "%"}, {"measurement": "target mRNA inhibition", "setting": "HepG2, 0.222 µM", "result": 8, "unit": "%"}, {"measurement": "target mRNA inhibition", "setting": "HepG2, 0.667 µM", "result": 29, "unit": "%"}, {"measurement": "target mRNA inhibition", "setting": "HepG2, 2 µM", "result": 46, "unit": "%"}, {"measurement": "target mRNA inhibition", "setting": "HepG2, 6 µM", "result": 76, "unit": "%"}]}, {"sequence": "ACTGGGCCGTCGCCCTTCAG (sugars e5 d10 e5, PS)", "values": [{"measurement": "target mRNA inhibition", "setting": "HepG2, 4 µM", "result": 26, "unit": "%"}]}, {"sequence": "CTCACTACAGGTACTTTAAA (sugars e5 d10 e5, PS)", "values": [{"measurement": "target mRNA inhibition", "setting": "HepG2, 5 µM", "result": 25, "unit": "%"}]}, {"sequence": "GGATACATTTCTACAGC (sugars e5 d8 k2 e2, linkages s1 o3 s9 o1 s2)", "values": [{"measurement": "target mRNA inhibition", "setting": "A431, 0.062 µM", "result": 2, "unit": "%"}, {"measurement": "target mRNA inhibition", "setting": "A431, 0.185 µM", "result": 4, "unit": "%"}, {"measurement": "target mRNA inhibition", "setting": "A431, 0.556 µM", "result": 15, "unit": "%"}, {"measurement": "target mRNA inhibition", "setting": "A431, 1.667 µM", "result": 19, "unit": "%"}, {"measurement": "target mRNA inhibition", "setting": "A431, 5 µM", "result": 37, "unit": "%"}, {"measurement": "target mRNA inhibition", "setting": "A431, 15 µM", "result": 44, "unit": "%"}, {"measurement": "target mRNA inhibition", "setting": "SH-SY5Y, 0.062 µM", "result": 0, "unit": "%"}, {"measurement": "target mRNA inhibition", "setting": "SH-SY5Y, 0.185 µM", "result": 0, "unit": "%"}, {"measurement": "target mRNA inhibition", "setting": "SH-SY5Y, 0.556 µM", "result": 12, "unit": "%"}, {"measurement": "target mRNA inhibition", "setting": "SH-SY5Y, 1.667 µM", "result": 30, "unit": "%"}, {"measurement": "target mRNA inhibition", "setting": "SH-SY5Y, 5 µM", "result": 56, "unit": "%"}, {"measurement": "target mRNA inhibition", "setting": "SH-SY5Y, 15 µM", "result": 68, "unit": "%"}]}, {"sequence": "TCTGGCAAAATACAGGT (sugars e3 k2 d7 k2 e3, PS)", "values": [{"measurement": "target mRNA inhibition", "setting": "HepG2, 3 µM", "result": 0, "unit": "%"}]}, {"sequence": "CTTTGGCCCACCGTGTT (sugars e3 k2 d7 k2 e3, PS)", "values": [{"measurement": "target mRNA inhibition", "setting": "HepG2, 3 µM", "result": 41, "unit": "%"}]}, {"sequence": "ATAGCCTCATAATAAGT (sugars e2 k2 d8 k2 e3, PS)", "values": [{"measurement": "target mRNA inhibition", "setting": "HepG2, 5 µM", "result": 20, "unit": "%"}]}, {"sequence": "TGGATAGAGGATTAAAG (sugars e3 k2 d7 k2 e3, PS)", "values": [{"measurement": "target mRNA inhibition", "setting": "HepG2, 3 µM", "result": 23, "unit": "%"}]}, {"sequence": "GTCCTTTAATGCTTCCCCAC (sugars e5 d10 e5, PS)", "values": [{"measurement": "target mRNA inhibition", "setting": "HepG2, 4 µM", "result": 9, "unit": "%"}]}, {"sequence": "CCTCATAATAAGTGCCA (sugars e2 k2 d8 k2 e3, PS)", "values": [{"measurement": "target mRNA inhibition", "setting": "HepG2, 5 µM", "result": 29, "unit": "%"}]}, {"sequence": "TTTTATTCACAGGCTTG (sugars e3 k2 d7 k2 e3, PS)", "values": [{"measurement": "target mRNA inhibition", "setting": "HepG2, 3 µM", "result": 28, "unit": "%"}]}, {"sequence": "TTTCTGGATAGAGGATTAAA (sugars e5 d10 e5, PS)", "values": [{"measurement": "target mRNA inhibition", "setting": "HepG2, 5 µM", "result": "6% and 14%"}]}, {"sequence": "TCAGACTACATCCAAGG (sugars e3 k2 d7 k2 e3, PS)", "values": [{"measurement": "target mRNA inhibition", "setting": "HepG2, 0.1875 µM", "result": 19, "unit": "%"}, {"measurement": "target mRNA inhibition", "setting": "HepG2, 0.75 µM", "result": 51, "unit": "%"}, {"measurement": "target mRNA inhibition", "setting": "HepG2, 3 µM", "result": "57% and 74%"}, {"measurement": "target mRNA inhibition", "setting": "HepG2, 12 µM", "result": 85, "unit": "%"}]}, {"sequence": "GCCACGCCGAGGTCCTGGTT (sugars e5 d10 e5, PS)", "values": [{"measurement": "target mRNA inhibition", "setting": "HepG2, 4 µM", "result": 38, "unit": "%"}]}, {"sequence": "CAAATCTTCCAAGTGAT (sugars e3 k2 d7 k2 e3, PS)", "values": [{"measurement": "target mRNA inhibition", "setting": "HepG2, 3 µM", "result": 18, "unit": "%"}]}, {"sequence": "TTATTCACAGGCTTGAA (sugars e3 k2 d7 k2 e3, PS)", "values": [{"measurement": "target mRNA inhibition", "setting": "HepG2, 3 µM", "result": 10, "unit": "%"}]}, {"sequence": "GTTTTATAAAACTATAC (sugars e3 k2 d7 k2 e3, PS)", "values": [{"measurement": "target mRNA inhibition", "setting": "HepG2, 3 µM", "result": 22, "unit": "%"}]}, {"sequence": "TTTCTACAGCTAGCAGG (sugars e2 k2 d8 k2 e3, PS)", "values": [{"measurement": "target mRNA inhibition", "setting": "HepG2, 0.1875 µM", "result": 16, "unit": "%"}, {"measurement": "target mRNA inhibition", "setting": "HepG2, 0.75 µM", "result": 58, "unit": "%"}, {"measurement": "target mRNA inhibition", "setting": "HepG2, 3 µM", "result": 78, "unit": "%"}, {"measurement": "target mRNA inhibition", "setting": "HepG2, 4 µM", "result": 76, "unit": "%"}, {"measurement": "target mRNA inhibition", "setting": "HepG2, 12 µM", "result": 87, "unit": "%"}]}, {"sequence": "ATCTGTGATTTAAGTCT (sugars e2 k2 d8 k2 e3, PS)", "values": [{"measurement": "target mRNA inhibition", "setting": "HepG2, 5 µM", "result": 35, "unit": "%"}]}, {"sequence": "GGTCCATTACTTTCCTT (sugars e3 k2 d7 k2 e3, PS)", "values": [{"measurement": "target mRNA inhibition", "setting": "HepG2, 3 µM", "result": 18, "unit": "%"}]}, {"sequence": "CACTTTTAAGATTACAG (sugars e2 k2 d8 k2 e3, PS)", "values": [{"measurement": "target mRNA inhibition", "setting": "HepG2, 5 µM", "result": 37, "unit": "%"}]}, {"sequence": "ACTTTCCTTCTGCTCGA (sugars e3 k2 d7 k2 e3, PS)", "values": [{"measurement": "target mRNA inhibition", "setting": "HepG2, 3 µM", "result": 0, "unit": "%"}]}, {"sequence": "AGTGTTTAATGTTTATC (sugars e2 k2 d9 k2 e2, PS)", "values": [{"measurement": "target mRNA inhibition", "setting": "HepG2, 0.1875 µM", "result": 35, "unit": "%"}, {"measurement": "target mRNA inhibition", "setting": "HepG2, 0.75 µM", "result": 66, "unit": "%"}, {"measurement": "target mRNA inhibition", "setting": "HepG2, 3 µM", "result": 83, "unit": "%"}, {"measurement": "target mRNA inhibition", "setting": "HepG2, 4 µM", "result": 75, "unit": "%"}, {"measurement": "target mRNA inhibition", "setting": "HepG2, 5 µM", "result": 80, "unit": "%"}, {"measurement": "target mRNA inhibition", "setting": "HepG2, 12 µM", "result": "84% and 87%"}]}, {"sequence": "ACAAGTTTAATACCCAT (sugars e2 k2 d8 k2 e3, PS)", "values": [{"measurement": "target mRNA inhibition", "setting": "HepG2, 5 µM", "result": 58, "unit": "%"}]}, {"sequence": "GATTTAAGTCTGGCAAA (sugars e2 k2 d9 k2 e2, PS)", "values": [{"measurement": "target mRNA inhibition", "setting": "HepG2, 5 µM", "result": 35, "unit": "%"}]}, {"sequence": "ACTTTCTTCATTTCCAC (sugars e3 k2 d7 k2 e3, PS)", "values": [{"measurement": "target mRNA inhibition", "setting": "HepG2, 3 µM", "result": 15, "unit": "%"}]}, {"sequence": "CTTTTAATAGCCTCATA (sugars e2 k2 d8 k2 e3, PS)", "values": [{"measurement": "target mRNA inhibition", "setting": "HepG2, 5 µM", "result": 45, "unit": "%"}]}, {"sequence": "CCGCGACTACTTTATAG (sugars e3 k2 d7 k2 e3, PS)", "values": [{"measurement": "target mRNA inhibition", "setting": "HepG2, 3 µM", "result": 5, "unit": "%"}]}, {"sequence": "CATGGACCACCAGTGTGCGG (sugars e5 d10 e5, PS)", "values": [{"measurement": "target mRNA inhibition", "setting": "HepG2, 5 µM", "result": 25, "unit": "%"}]}, {"sequence": "ATCCAAGGGAATGTTTA (sugars e3 k2 d7 k2 e3, PS)", "values": [{"measurement": "target mRNA inhibition", "setting": "HepG2, 3 µM", "result": 42, "unit": "%"}]}, {"sequence": "TTTTTCATGGACCACCA (sugars e3 k2 d7 k2 e3, PS)", "values": [{"measurement": "target mRNA inhibition", "setting": "HepG2, 3 µM", "result": 76, "unit": "%"}]}, {"sequence": "CATTTCTACAGCTAGCA (sugars e3 k2 d7 k2 e3, PS)", "values": [{"measurement": "target mRNA inhibition", "setting": "HepG2, 3 µM", "result": 34, "unit": "%"}]}, {"sequence": "TTATCAGGATACATTTC (sugars e2 k2 d8 k2 e3, PS)", "values": [{"measurement": "target mRNA inhibition", "setting": "HepG2, 4 µM", "result": 57, "unit": "%"}]}, {"sequence": "CATAATAAGTGCCATAC (sugars e2 k2 d9 k2 e2, PS)", "values": [{"measurement": "target mRNA inhibition", "setting": "HepG2, 5 µM", "result": 34, "unit": "%"}]}, {"sequence": "CCCAAGTCATCTGCTTT (sugars e3 k2 d7 k2 e3, PS)", "values": [{"measurement": "target mRNA inhibition", "setting": "HepG2, 3 µM", "result": 72, "unit": "%"}]}, {"sequence": "CTACAGGTACTTTAAAG (sugars e2 k2 d8 k2 e3, PS)", "values": [{"measurement": "target mRNA inhibition", "setting": "HepG2, 5 µM", "result": 2, "unit": "%"}]}, {"sequence": "TCTGAAAAAGTCACACAATT (sugars e5 d10 e5, PS)", "values": [{"measurement": "target mRNA inhibition", "setting": "HepG2, 5 µM", "result": 5, "unit": "%"}]}, {"sequence": "AAATTCTGACAAGTTTA (sugars e3 k2 d7 k2 e3, PS)", "values": [{"measurement": "target mRNA inhibition", "setting": "HepG2, 3 µM", "result": 21, "unit": "%"}]}]}
